{
  "source": "PubChem BioAssay AID1418",
  "about": "(Emory University Molecular Libraries Screening Center, 2008)",
  "note": "Active and inactive are the calls of the source. How the calls were made is not given here.",
  "data": [
    {"biological_target": "Induced myeloid leukemia cell differentiation protein Mcl-1 (Homo sapiens) (UniProt Q07820)", "sequence (Q07820 whole entry, looked up)": "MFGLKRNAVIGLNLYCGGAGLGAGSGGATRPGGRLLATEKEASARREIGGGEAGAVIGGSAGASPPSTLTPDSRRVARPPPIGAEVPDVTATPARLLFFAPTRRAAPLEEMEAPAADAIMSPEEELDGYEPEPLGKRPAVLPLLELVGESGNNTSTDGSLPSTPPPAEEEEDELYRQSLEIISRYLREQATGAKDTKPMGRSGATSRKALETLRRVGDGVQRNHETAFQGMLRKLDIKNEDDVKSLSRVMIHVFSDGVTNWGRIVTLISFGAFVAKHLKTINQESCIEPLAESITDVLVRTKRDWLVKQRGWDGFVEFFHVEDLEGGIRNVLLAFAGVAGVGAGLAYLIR", "test": "blockers of Bid binding to Mcl-1 – biochemical, TR-FRET, dose response (AID 1418)", "conditions": "Mcl-1/Bid peptide binding, TR-FRET (europium/Dy647), 2 hr", "values": [
      {"smiles": "CCOC(=O)C1CCN(CC(=O)Nc2c(C(=O)OC)[nH]c3cccc(Cl)c23)CC1", "IC50": "> 54 µM (inactive)"},
      {"smiles": "FC(F)(F)c1cccc(N/N=C/c2ccccc2)c1", "IC50": "> 54 µM (inactive)"},
      {"smiles": "CCCCN(C)C(=O)c1coc(=O)c2ccccc12", "IC50": "> 54 µM (inactive)"},
      {"smiles": "O=[N+]([O-])c1ccc(-c2cn(-c3ccc(Cl)cc3)c(=S)[nH]2)cc1", "IC50": "> 54 µM (inactive)"},
      {"smiles": "CN1CCN(Cc2cccc(Oc3ccc(Cl)cc3)c2)CC1", "IC50": "> 54 µM (inactive)"},
      {"smiles": "O=S(=O)(c1ccccc1)N1CCN(Cc2ccccc2C(F)(F)F)CC1", "IC50": "> 54 µM (inactive)"},
      {"smiles": "Cc1ccc(S(=O)(=O)N(CC(=O)N/N=C/c2cccc(Cl)c2)c2cccc3cccnc23)cc1", "IC50": "> 54 µM (inactive)"},
      {"smiles": "CC1CCC(C(C)C)C(OC(=O)C[n+]2cc(-c3ccc(Cl)cc3)n3c2CCC3)C1", "note": "(configuration not stated)", "IC50": "> 54 µM (inactive)"},
      {"smiles": "O=C(O)C1Nc2c(O)cc(Cl)c([N+](=O)[O-])c2C2C=CCC12", "note": "(configuration not stated)", "IC50": "0.58 µM"},
      {"smiles": "CCCN(CCC)C(C(=O)Nc1cccc(OC)c1)c1ccccc1", "note": "(configuration not stated)", "IC50": "> 54 µM (inactive)"},
      {"smiles": "C=C(C=O)CC1CC(O)[C@]2(C)OC3CC4OC5C[C@]6(C)O[C@]7(C)CCC8OC9C[C@]%10(C)OC%11C(C)=CC(=O)OC%11CC%10OC9C[C@@H](C)C8OC7CC6O[C@]5(C)CC5OC5C4OC3CC2O1", "note": "(some centres not stated)", "IC50": "> 54 µM (inactive)"},
      {"smiles": "CN(NC(=O)COc1ccccc1)c1ccccc1", "IC50": "> 54 µM (inactive)"},
      {"smiles": "O=C1NN(c2ccc(Cl)c(Cl)c2)C(=O)/C1=C/c1cccc(OC(=O)c2cccs2)c1", "IC50": "6.57 µM"},
      {"smiles": "O=C(Cc1ccc(F)cc1)Nc1nnc(SCC(=O)NC2CCCC2)s1", "IC50": "> 54 µM (inactive)"},
      {"smiles": "COc1ccc2nc(-n3c(O)c(C4=c5ccccc5=NC4=O)[nH]c3=S)sc2c1", "IC50": "1.38 µM"},
      {"smiles": "CN1C(=O)CN=C(c2ccc(Cl)cc2)c2cc(Cl)ccc21", "IC50": "> 54 µM (inactive)"},
      {"smiles": "Cc1ccc(C2C3=C(Nc4[nH]n(-c5ccccc5)c(=O)c42)c2ccccc2C3=O)cc1", "note": "(configuration not stated)", "IC50": "0.74 µM"},
      {"smiles": "Cn1c2c(c(=O)n(C)c1=O)C1c3cc(Cl)ccc3OCC1CO2", "note": "(configuration not stated)", "IC50": "> 54 µM (inactive)"},
      {"smiles": "CC1(c2cccc3ccccc23)NC(=O)N(CC(=O)NC2CCS(=O)(=O)C2)C1=O", "note": "(configuration not stated)", "IC50": "> 54 µM (inactive)"},
      {"smiles": "COc1ccc(CCNC(=O)COC(=O)Cc2ccccc2)cc1", "IC50": "> 54 µM (inactive)"},
      {"smiles": "Cc1nc(COC(=O)c2cc(O)c3ccccc3c2O)cs1", "IC50": "0.9 µM"},
      {"smiles": "COc1ccc2[nH]c3c4c(ccc3c2c1)C(=O)C=CC4=O", "IC50": "2.51 µM"},
      {"smiles": "CCN1C(=O)c2cccc3c(S(=O)(=O)Nc4ccccc4OC)ccc1c23", "IC50": "> 54 µM (inactive)"},
      {"smiles": "CSc1nc(SCC(=O)O)c2sc3nc(-c4ccccc4)c4c(c3c2n1)CCC4", "IC50": "1.53 µM"},
      {"smiles": "O=C(Nc1cnn(C23CC4CC(CC(C4)C2)C3)c1)c1cnn2c(C(F)(F)F)cc(-c3ccco3)nc12", "IC50": "1.38 µM"},
      {"smiles": "Cc1ccc(/C=N/NC(=O)c2cc3c(ccc4ccccc43)o2)cc1[N+](=O)[O-]", "IC50": "11.1 µM"},
      {"smiles": "Cc1cc(NS(=O)(=O)c2ccc(NC(NC(=O)C(C(F)(F)F)C(F)(F)F)(C(F)(F)F)C(F)(F)F)cc2)no1", "IC50": "1.62 µM"},
      {"smiles": "CCc1cc(C(c2ccc(F)cc2)N2CCOCC2)c(NC(=O)c2ccccc2)s1", "note": "(configuration not stated)", "IC50": "> 54 µM (inactive)"},
      {"smiles": "O=C(Nc1nccs1)c1cccc(N2C(=O)c3cccc4c([N+](=O)[O-])ccc(c34)C2=O)c1", "IC50": "0.53 µM"},
      {"smiles": "CCOc1cc(/C=C2\\C(=O)N(c3nc(-c4ccc(Br)cc4)cs3)N=C2c2ccccc2)ccc1O", "IC50": "0.75 µM"},
      {"smiles": "CC1=C(SCCC#N)S/C(=C2\\SC(C)=C(SCCC#N)S2)S1", "IC50": "2.84 µM"},
      {"smiles": "Cc1cc(C)n(Cc2cccc(F)c2)c(=O)c1C#N", "IC50": "> 54 µM (inactive)"},
      {"smiles": "O=C(Nc1ccc(-c2nc3ccc(NC(=O)c4cccs4)cc3[nH]2)cc1)c1cccs1", "IC50": "0.79 µM"},
      {"smiles": "Oc1c(Cl)cc(Cl)cc1Sc1cc(Cl)cc(Cl)c1O", "IC50": "1.67 µM"},
      {"smiles": "O=C(Cn1[nH]c(=O)c2ccccc2c1=O)OCC(=O)N1CCc2ccccc2C1", "IC50": "> 54 µM (inactive)"},
      {"smiles": "CC(/C=C1\\SC(=S)N(NS(=O)(=O)c2ccc(C)cc2)C1=O)=C\\c1ccccc1", "IC50": "25 µM"},
      {"smiles": "C/C(=N\\NC(=O)c1cc(-c2cccc([N+](=O)[O-])c2)n[nH]1)c1ccccc1O", "IC50": "29 µM"}
    ]}
  ]
}
